One test concerns the target T1, RIPK1 enzyme (Homo sapiens, UniProt Q13546).
T1 construct: purchased Eurofins 16-022
T1 sequence (Q13546 1-671): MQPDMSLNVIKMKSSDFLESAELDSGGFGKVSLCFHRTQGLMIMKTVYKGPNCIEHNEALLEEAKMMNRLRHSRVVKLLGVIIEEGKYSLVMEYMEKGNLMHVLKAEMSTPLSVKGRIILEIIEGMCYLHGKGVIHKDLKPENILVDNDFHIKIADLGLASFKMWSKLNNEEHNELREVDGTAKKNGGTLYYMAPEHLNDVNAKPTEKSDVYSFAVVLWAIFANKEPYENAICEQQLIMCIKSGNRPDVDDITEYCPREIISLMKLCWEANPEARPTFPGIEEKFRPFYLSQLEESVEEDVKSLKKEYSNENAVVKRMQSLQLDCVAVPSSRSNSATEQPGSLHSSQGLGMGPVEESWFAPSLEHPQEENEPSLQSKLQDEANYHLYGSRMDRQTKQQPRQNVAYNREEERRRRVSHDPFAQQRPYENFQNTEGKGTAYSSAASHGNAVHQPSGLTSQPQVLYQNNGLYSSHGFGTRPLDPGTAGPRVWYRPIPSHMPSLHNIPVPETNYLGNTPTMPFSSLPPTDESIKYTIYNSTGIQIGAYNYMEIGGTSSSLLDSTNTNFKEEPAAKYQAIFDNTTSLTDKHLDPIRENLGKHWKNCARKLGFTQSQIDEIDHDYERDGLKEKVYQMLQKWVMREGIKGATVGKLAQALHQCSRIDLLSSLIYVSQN
The test can be described thus: Inhibitory activity of the compounds against RIPK1 enzyme (33P-ATP, MBP substrate). Type of test: biochemical. To be noted: 36 nM RIPK1, 0.33 mg/ml MBP, 155 μM P33-labeled ATP, room temperature 2 hours. Here is the method:
The test compound was dissolved in DMSO to prepare a 10 mM stock solution. The stock solution was diluted in 3.16 folds with DMSO to a series of gradient concentrations. Then, the resultant solution was diluted in 50 folds with MOPS buffer pH 7.0 to prepare a working solution. The working solution was mixed with 36 nM RIPK1 (final concentration) and 0.33 mg/ml substrate MBP homogeneously. Thereafter, 10 mM magnesium ion and 155 μM P^33 isotopically labeled ATP were added for the reaction. The final concentration of DMSO was 2%. After the reaction was carried out at room temperature for 2 hours phosphoric acid was added to terminate the reaction. The final reaction system was tested using a liquid scintillation counter after treatment. The result obtained by subtracting a blank control from the tested value was converted to activity percentage as compared to the readout value of control group. The activity percentage was plotted against the final concentration of respective compound using a 4-parameter fitting to obtain the inhibitory IC50 of the compound against RIPK1 enzyme.

For a further test, the system named is L929 cells. The test can be described thus: Inhibitory activity against programmed necroptosis of L929 cells induced by TNF-α. Format: cell-based. Conditions: Mus musculus, 30 ng/ml murine TNF-α and 15 μM Z-VAD, 6 hours, CellTiter-Glo survival rate, read-out: L929 AbIC50. The procedure:
The compound was dissolve in DMSO to prepare a 10 mM stock solution. The stock solution was diluted in 3.16 folds with DMSO to a series of gradient concentrations. Then, the resultant solution was diluted in 100 folds with a culture medium to prepare a working solution. The L929 cells were inoculated in a 384-well plate at 10000/well. The compound at respective concentration was added to each of the wells, and was mixed with the cells homogeneously. 30 ng/ml murine TNF-α and 15 μM Z-VAD were added simultaneously to induce programmed necroptosis of the cells. The final concentration of DMSO was 2%. The cells were placed in an incubator at 37° C. and 5% CO2 for further culture of 6 hours. CellTiter-Glo reagent was used for detection. After adequate pyrolysis reaction, the chemiluminescence readout value was recorded by a microplate reader. The survival rate was calculated from the detection results using the equation as follows: SR (%)=(RLU compound −RLU blank)/(RLU high control−RLU blank)×100%. The survival rate was plotted against the final concentration of respective compound using a 4-parameter fitting to calculate the inhibitory IC50 of the compound against programmed necroptosis of cells induced by TNF-a.
On the technique in general: In ATP-based viability assays light output follows the ATP content of the culture.

The subject of a further test is U937 cells. The test can be described thus: Inhibitory activity against programmed necroptosis of U937 cells induced by TNF-α. Format: cell-based, human. To be noted: for pIC50: 100 ng/ml human TNF-α and 25 μM Q-VD-Oph, 48 hours, CellTiter-Glo survival rate, read-out: U937 IC50. Here is the method:
The U937 cell strain which was used in the following Testing Examples was derived from ATCC, No.: CRL-1593.2, batch No.: 63479999, culture medium: RPMI-1640+10% FBS.
The compound was dissolved in DMSO to prepare a 10 mM stock solution. The stock solution was diluted in 3.16 folds with DMSO to a series of gradient concentrations. Then, the resultant solution was diluted in 250 folds with a culture medium to prepare a working solution. The U937 cells were inoculated in a 384-well plate at 5000/well. The compound at respective concentration was added to each of the cells, and was mixed with the cells homogeneously. 100 ng/ml human TNF-α and 25 μM Q-VD-Oph were added simultaneously to induce programmed necroptosis of the cells. The final concentration of DMSO was 2%. The cells were placed in the incubator at 37° C. and 5% CO2 for further culture of 48 hours. Celltiter-Glo reagent was used for detection. After adequate pyrolysis reaction, the chemiluminescence readout value was recorded by a microplate reader. The survival rate was calculated from the detection results using the equation as follows: SR (%)=(RLU compound−RLU blank)/(RLU high control−RLU blank)×100%. The survival rate was plotted against the final concentration of respective compound using a 4-parameter fitting to calculate the inhibitory IC50 of the compound against programmed necroptosis of cells induced by TNF-a.

pIC50: −log10 of the molar value. Where two headings read alike, the source gives them in different places.

At RIPK1 enzyme, `COc1ncc(-c2ccc3nc(N)sc3c2)cc1C(=O)NC(C)c1cccc(OC(F)(F)F)c1` (centres unmarked) [Compound Z3, 5-(2-aminobenzo[d]thiazol-6-yl)-2-methoxy-N-(1-(3-(trifluoromethoxy)phenyl)ethyl)nicotinamide] gave a pIC50 of 7.49.
Turning to `Nc1nc2ccc(-c3cnc4c(c3)C(=O)N(Cc3cc(F)cc(F)c3OC3CC3)CC4)cc2s1` [Compound Z64, 3-(2-aminobenzo[d]thiazol-6-yl)-6-(2-cyclopropoxy-3,5-difluorobenzyl)-7,8-dihydro-1,6-naphthyridin-5(6H)-one], the pIC50 against RIPK1 enzyme is 7.47; in the test on L929 cells it was 8.52; with U937 cells (Homo sapiens, U-937, 48 h), 8.40.
On to `Nc1nc2ccc(-c3cnc4c(c3)C(=O)N(Cc3cc(C(F)(F)F)ccc3F)CC4)cc2s1` [Compound Z65, 3-(2-aminobenzo[d]thiazol-6-yl)-6-(2-fluoro-5-(trifluoromethyl)benzyl)-7,8-dihydro-1,6-naphthyridin-5(6H)-one], for which the pIC50 was 7.37 against RIPK1 enzyme and 7.32 in the test on U937 cells (Homo sapiens, U-937, 48 h).
With `COc1ncc(-c2ccc3nc(NC(C)=O)sc3c2)cc1C(=O)NC(C)c1ccccc1OC(F)(F)F` (single isomer, unassigned) [Compound Z5, 5-(2-acetylaminobenzothiazol-6-yl)-2-methoxy-N-(1-(2-(trifluoromethoxy)phenyl)ethyl)nicotinamide], the pIC50 at RIPK1 enzyme is 7.54; in the test with U937 cells, 7.82.
Turning to `C[C@H](c1ccccc1OC(F)(F)F)N1CCc2ncc(-c3ccc4nc(N)sc4c3)cc2C1=O` (single isomer, unassigned) [Compound Z54-2], the results for the pIC50 against RIPK1 enzyme and with L929 cells were 7.29 and over 8.52, respectively. Besides, the IC50 in the test on U937 cells (Homo sapiens, U-937, 48 h, read-out: U937 IC50(μM), 100 ng/ml human TNF-α and 25 μM Q-VD-Oph, 48 hours, CellTiter-Glo survival rate) is 0.001 µM.
Turning to `Nc1nc2ccc(-c3cnc4c(c3)C(=O)N(Cc3cc(OC(F)(F)F)ccc3F)CC4)cc2s1` [Compound Z55, 3-(2-aminobenzo[d]thiazol-6-yl)-6-(2-fluoro-5-(trifluoromethoxy)benzyl)-7,8-dihydro-1,6-naphthyridin-5(6H)-one], the pIC50 against RIPK1 enzyme is 7.41; with U937 cells (Homo sapiens, U-937, 48 h) it was 8.10.
In the same order, the values of `COc1ncc(-c2ccc3nc(NC(=O)C4CC4)sc3c2)cc1C(=O)NC(C)c1ccccc1OC(F)(F)F` (centres unmarked) [Compound Z56, 5-(2-(cyclopropylformamido)benzo[d]thiazol-6-yl)-2-methoxy-N-(1-(2-(trifluoromethoxy)phenyl)ethyl)nicotinamide] are 7.44 and 8.10.
Turning to `COc1ncc(-c2ccc3nc(NC(C)=O)sc3c2)cc1C(=O)NC(C)c1ccccc1OC(F)(F)F` (single isomer, unassigned) [Compound Z5-1], the pIC50 against RIPK1 enzyme is 7.55; in the test with U937 cells, 8.30.
As for `COc1ncc(-c2ccc3nc(NC(=O)C4CC4)sc3c2)cc1C(=O)N[C@@H](C)c1ccccc1OC(F)(F)F` (single isomer, unassigned) [Compound Z6-1], the pIC50 at RIPK1 enzyme was 7.22; in the test on U937 cells (Homo sapiens, U-937, 48 h), 8.52.
For `COc1ncc(-c2ccc3nc(N)sc3c2)cc1C(=O)N1CCC[C@H](Cc2ccc(F)cc2)C1` [Compound Z17-1], the pIC50 in the test with L929 cells is 8.00; in the test on U937 cells (Homo sapiens, U-937, 48 h) it was 8.05.
Turning to `Cc1ncc(C(=O)NC(C)c2ccccc2OC(F)(F)F)cc1-c1ccc2nc(N)sc2c1` (centres unmarked) [Compound Z10, 5-(2-aminobenzo[d]thiazol-6-yl)-6-methyl-N-(1-(2-(trifluoromethoxy)phenyl)ethyl)nicotinamide], the pIC50 against RIPK1 enzyme was 7.19.
As for `Cn1ncc2c(-c3ccn4nc(N)nc4c3)cc(C(=O)NCc3cc(F)ccc3OC3CCCC3)cc21` [Compound Z31, 4-(2-amino-[1,2,4]triazolo[1,5-a]pyridin-7-yl)-N-(2-(cyclopentyloxy)-5-fluorobenzyl)-1-methyl-1H-indazole-6-carboxamide], the pIC50 with L929 cells was 7.39; with U937 cells (Homo sapiens, U-937, 48 h) it was 8.70.
Regarding `CC(NC(=O)c1cncc(-c2ccc3nc(N)sc3c2)c1)c1ccccc1OC(F)(F)F` (centres unmarked) [Compound Z9, 5-(2-aminobenzo[d]thiazol-6-yl)-N-(1-(2-(trifluoromethoxy)phenyl)ethyl)nicotinamide], at RIPK1 enzyme, the pIC50 is 7.22.
On to `Cn1ncc2c(-c3ccn4nc(N)nc4c3)cc(C(=O)N3CCCC(Cc4ccc(F)cc4)C3)cc21` (centres unmarked) [Compound Z29, (4-(2-amino-[1,2,4]triazolo[1,5-a]pyridin-7-yl)-1-methyl-1H-indazol-6-yl)(3-(4-fluorobenzyl)piperidin-1-yl)methanone], for which the pIC50 is 7.92 in the test on L929 cells and 8.15 in the test on U937 cells (Homo sapiens, U-937, 48 h).
The matching figures for `COc1ncc(-c2ccc3nc(N)sc3c2)cc1C(=O)NCc1cc(F)cc(F)c1OCC(C)C` [Compound Z49, 5-(2-aminobenzo[d]thiazol-6-yl)-N-(3,5-difluoro-2-isobutoxybenzyl)-2-methoxynicotinamide]: 7.43 and 8.22.
On to `COc1ncc(C(=O)NC(C)c2ccccc2OC(F)(F)F)cc1-c1ccc2nc(N)sc2c1` (centres unmarked) [Compound Z7, 5-(2-aminobenzo[d]thiazol-6-yl)-6-methoxy-N-(1-(2-(trifluoromethoxy)phenyl)ethyl)nicotinamide], for which the pIC50 against RIPK1 enzyme is 7.08.
For `COc1ncc(-c2ccc3nc(N)sc3c2)cc1C(=O)NCc1ccccc1OC(F)(F)F` [Compound Z2, 5-(2-aminobenzo[d]thiazol-6-yl)-2-methoxy-N-(2-(trifluoromethoxy)benzyl)nicotinamide], the pIC50 on RIPK1 enzyme was 7.64; in the test with U937 cells (Homo sapiens, U-937, 48 h), 7.42.
On RIPK1 enzyme, `COc1ncc(-c2ccc3nc(N)sc3c2)cc1C(=O)NCc1cccc(OC(F)(F)F)c1` [Compound Z4, 5-(2-aminobenzo[d]thiazol-6-yl)-2-methoxy-N-(3-(trifluoromethoxy)benzyl)nicotinamide] gave a pIC50 of 7.77.
In the case of `COc1ncc(-c2ccc3nc(NC(=O)C4CC4)sc3c2)cc1C(=O)NC(C)c1ccccc1OC(F)(F)F` (single isomer, unassigned) [Compound Z6, 5-(2-(cyclopropylcarbonylamino)benzo[d]thiazol-6-yl)-2-methoxy-N-(1-(2-(trifluoromethoxy)phenyl)ethyl)nicotinamide], the pIC50 against RIPK1 enzyme was 7.44; in the test on U937 cells (Homo sapiens, U-937, 48 h) it was 8.10.

For the origin of these results see patent US20220177462A1, “SUBSTITUTED HETEROCYCLIC AMIDE COMPOUND AND PREPARATION METHOD THEREFOR AND PHARMACEUTICAL USE THEREOF” (GENFLEET THERAPEUTICS (SHANGHAI) INC., priority 2019, published 2022).
